Reference: paper PMC9353713, “Tumor-targeting cell-penetrating peptide, p28, for glioblastoma imaging and therapy” (Frontiers in Oncology, 2022)

Experiments:
LN-229 xenograft = experiment: Subcutaneous xenograft tumor growth; type: in vivo, athymic mice; conditions: LN-229 s.c. xenograft, day 20; TMZ 5 mg/kg Day1-5, p28 10 mg/kg 3 times weekly, i.p.; N=5/group; P<0.001
Experimental: (§1) All animal work was performed under a protocol approved by the University of Illinois at Chicago. Athymic mice at 4-5 weeks old were purchased from The Jackson Laboratory. For orthotopic xenografts, GBM cell lines (LN-229 and U-118) were injected into the cerebral cortex. Following anesthesia, cancer cell suspensions at 5x10^5 cells/3μl were stereotactically injected (2 mm lateral to the sagittal suture, 1 mm anterior to the coronal suture, 3 mm depth) using a Koft model 963 stereotactic apparatus with a 31-gauge Hamilton syringe. After injection, the injection site was covered with sterile bone wax. Tumor growth was monitored by MR imaging. For tumor growth study, GBM cell lines (LN-229 and U-118) at 1.0x10^6 cell/mouse were subcutaneously (s.c.) implanted into the right flank of athymic mice ([22]). When tumors reached 3 mm in diameter, animals were randomized into several groups; PBS (control), TMZ 5 mg/kg (25.7 μmol/kg) 5 injections on Day1-5, and p28 10 mg/kg (3.4 μmol/kg) 3 times weekly, i.p. Body weight was determined 3 times weekly. The tumor volume in each animal was assessed by calipers and calculated 3 times weekly.
(§2) Data processing and statistical analysis were performed using GraphPad Prism. ANOVA test was performed for tumor growth analysis, and P<0.05 was considered statistically significant.

U-118 xenograft = experiment: Subcutaneous xenograft tumor growth; type: in vivo, athymic mice; conditions: U-118 s.c. xenograft, day 20; TMZ 5 mg/kg, p28 10 mg/kg i.p.; N=7/group
Experimental: as §1, §2

[1] = Body weight in xenograft study; type: in vivo, athymic mice; conditions: U-118 xenograft mice, over four weeks of i.p. treatment
Experimental: as §1

LN-229 = experiment: Cytotoxicity, MTT assay; type: cell-based, human; conditions: LN-229, 1 mM, 72 hr, N=3, P<0.001
Experimental: (§3) Cytotoxicity was evaluated by the MTT assay as described previously ([21], [22]). Cells seeded in 96-well plates were exposed to TMZ at various concentrations for 72 hr (N=3 in each concentration). Curves were fitted using GraphPad PRISM (version 5.0) as a function of a nonlinear one-phase decay (maximum iterations: 1,000, Cl: 95%).

U-118 = experiment: Cytotoxicity, MTT assay; type: cell-based, human; conditions: U-118, 1 mM, 72 hr, N=3, P<0.001
Experimental: as §3

Q: Which “reduction in tumor growth compared to the PBS control group” value (LN-229 xenograft) does the source give for Cn1nnc2c(C(N)=O)ncn2c1=O [TMZ, temozolomide] here?
A: 42.4%

Q: What about the “reduction of tumor growth” value (U-118 xenograft) of the same compound?
A: 24.5%

Q: And the body weight [1]?
A: 29.0 ± 0.8 g

Q: What about the “reduction (antiproliferative effect, MTT)” value (LN-229) of the same compound?
A: 53.2%

Q: What about the “reduction (antiproliferative effect, MTT)” value (U-118) of the same compound?
A: 36.6%
